Data on six compounds can be found in ChEMBL document CHEMBL2040800 (J Med Chem, 2012).

In brackets after ≈: the same amount, converted by molar mass. Activity calls are given as the source filed them. No cut-off for these calls is given here.

A short description of series [1]: Intrinsic clearance in human liver microsomes at 1 uM up to 60 mins. It is filed as ADME, Microsome. The note with it: read-out: CLH. Background: Liver microsomes are vesicles of endoplasmic reticulum, rich in cytochrome P450 enzymes.
The subject of series [2] is Plasmodium berghei. Put plainly: Antimalarial activity against Plasmodium berghei ANKA expressing GFP infected in Sprague-Dawley rat assessed as reduction in parasitemia at 100 mg/kg, po administered as single dose measured on day 3 post-infection by flow cytometry. It is filed as functional. Further details: scale not given: the % may be the effect or the level left. For orientation: A flow cytometer gives signals particle by particle.

The test system of series [3] is Plasmodium berghei. In words: Antimalarial activity against Plasmodium berghei ANKA expressing GFP infected in Sprague-Dawley rat assessed as mean survival days of host at 50 mg/kg, po administered as 4 doses. It is filed as functional.
The test system of series [4] is Plasmodium berghei. Put plainly: Antimalarial activity against Plasmodium berghei ANKA expressing GFP infected in Sprague-Dawley rat assessed as mean survival days of host at 30 mg/kg, po administered as single dose. The format is functional.
For series [5], the system named is Plasmodium berghei. In words: Antimalarial activity against Plasmodium berghei ANKA expressing GFP infected in Sprague-Dawley rat assessed as mean survival days of host at 100 mg/kg, po administered as single dose. It is filed as functional.
Series [6] deals with Plasmodium berghei. In words: Antimalarial activity against Plasmodium berghei ANKA expressing GFP infected in Sprague-Dawley rat assessed as reduction in parasitemia at 30 mg/kg, po administered as single dose measured on day 3 post-infection by flow cytometry. The format is functional. Further details: scale not given: the % may be the effect or the level left.
Series [7] can be described thus: Kinetic solubility of the compound in phosphate buffer after 30 mins by nephelometry at pH 6.5. It is filed as physicochemical. Conditions: read-out: Kinetic_solubility.
For series [8], the system named is Plasmodium falciparum. Put plainly: Antimalarial activity against chloroquine-sensitive Plasmodium falciparum NF54 after 24 hrs by hypoxanthine incorporation assay. It is filed as functional, organism-based. The note with it: NF54, 24 h.
The subject of series [9] is Plasmodium falciparum. Put plainly: Antimalarial activity against chloroquine-resistant Plasmodium falciparum K1 after 24 hrs by hypoxanthine incorporation assay. It is filed as functional, organism-based. The note with it: K1, 24 h.
Series [10] in a line: Half life in human liver microsomes at 1 uM. It is filed as ADME, Microsome.
A short description of series [11]: Partition coefficient, log D of the compound at pH 7.4 by phase gradient HPLC analysis. The format is physicochemical. The note with it: octanol/water.
Series [12] deals with Plasmodium berghei. Put plainly: Antimalarial activity against Plasmodium berghei ANKA expressing GFP infected in Sprague-Dawley rat assessed as reduction in parasitemia at 50 mg/kg, po administered as 4 doses measured on day 4 post-infection by flow cytometry. It is filed as functional. Further details: scale not given: the % may be the effect or the level left.
Series [13] in a line: Plasma protein binding in human by reverse phase gradient HPLC analysis. The note with it: read-out: PPB (converted). The format is ADME, cell-free.
For series [14], the system named is Plasmodium berghei. In words: Antimalarial activity against Plasmodium berghei ANKA expressing GFP infected in Sprague-Dawley rat assessed as host survival at 30 mg/kg, po administered as single dose measured 6 days post-infection. It is filed as functional, organism-based. Further details: dose 30 mg/kg.
The subject of series [15] is Plasmodium falciparum. Put plainly: Antimalarial activity against ring stage Plasmodium falciparum 3D7 at 1.82 uM after 72 hrs by DAPI-staining based confocal microscopy. The format is functional.
Series [16] has as its system Plasmodium falciparum. Put plainly: Antimalarial activity against ring stage Plasmodium falciparum Dd2 at 1.82 uM after 72 hrs by DAPI-staining based confocal microscopy. It is filed as functional.
Series [17] concerns Plasmodium berghei. In words: Antimalarial activity against Plasmodium berghei ANKA expressing GFP infected in Sprague-Dawley rat assessed as mean survival days of host at 3 mg/kg, po administered as single dose. It is filed as functional.
Series [18] has as its system Plasmodium berghei. Put plainly: Antimalarial activity against Plasmodium berghei ANKA expressing GFP infected in Sprague-Dawley rat assessed as reduction in parasitemia at 3 mg/kg, po administered as single dose measured on day 3 post-infection by flow cytometry. The format is functional. Further details: scale not given: the % may be the effect or the level left.

For series [19], the system named is Plasmodium berghei. In words: Antimalarial activity against Plasmodium berghei ANKA expressing GFP infected in Sprague-Dawley rat assessed as mean survival days of host at 10 mg/kg, po administered as single dose. The format is functional.
Series [20] relates to Plasmodium berghei. Put plainly: Antimalarial activity against Plasmodium berghei ANKA expressing GFP infected in Sprague-Dawley rat assessed as reduction in parasitemia at 10 mg/kg, po administered as single dose measured on day 3 post-infection by flow cytometry. The format is functional. More on the design: scale not given: the % may be the effect or the level left.
In series [21] the test system is Plasmodium berghei. Put plainly: Antimalarial activity against Plasmodium berghei ANKA expressing GFP infected in Sprague-Dawley rat assessed as host survival at 3 mg/kg, po administered as single dose measured 6 days post-infection. It is filed as functional, organism-based. Further details: dose 3 mg/kg.
Series [22] has as its system Plasmodium berghei. In words: Antimalarial activity against Plasmodium berghei ANKA expressing GFP infected in Sprague-Dawley rat assessed as total cure from parasite at 50 mg/kg, po administered as 4 doses measured on day 30 post-infection by flow cytometry. The format is functional, organism-based. More on the design: dose 50 mg/kg.

Turning to `CS(=O)(=O)c1ccc(-c2cnc(N)c(-c3ccc(C(N)=O)cc3)c2)cc1`, in [1], the microsomal CLint at 1 µM is less than 5 µL/min/mg. Also, the Activity was 64% in the series on Plasmodium berghei [2], less than 40% in the series on Plasmodium berghei [6] and 66% with Plasmodium berghei [12]. In addition, the MSD in the series on Plasmodium berghei [3] was found to be 7 days; in the series with Plasmodium berghei [4] it was 3 days; with Plasmodium berghei [5] it was 7 days. The solubility kinetic at 0.5 h in series [7] is 25 µg/mL (≈ 68 µM). In addition, the IC50 in the series on Plasmodium falciparum [8] and with Plasmodium falciparum [9] was 30 nM each time. For the same compound, in [10], the half-life – broadly, the time in which the quantity being followed falls by half – at 1 µM is more than 350 min. Besides, in series [11], the chromatographic logD (commonly a lipophilicity value derived from retention on a column) came out at 1.5. For the same compound, the fraction unbound in [13] was 0.216. Besides, in the series with Plasmodium berghei [14], the outcome was inactive.
On to `CN(C)CCNC(=O)c1ccc(-c2cc(-c3cc(F)c(F)c(F)c3)cnc2N)cc1`, for which the Activity with Plasmodium falciparum [15] and with Plasmodium falciparum [16] was 50% throughout.
Take `Nc1ncc(-c2ccc(Cl)cc2)cc1-c1cccc(CO)c1`: the Activity with Plasmodium falciparum [15] and in the series on Plasmodium falciparum [16] was 50% throughout.
On to `CCN(CC)CCCC(C)Nc1ccnc2cc(Cl)ccc12` (stereo not drawn) [CHLOROQUINE], for which the MSD came out at 7 days in the series with Plasmodium berghei [17], 9 days in the series on Plasmodium berghei [4], 12 days in the series on Plasmodium berghei [5] and 7 days in the series with Plasmodium berghei [19]. Moreover, the results for the Activity in the series on Plasmodium berghei [18], in the series with Plasmodium berghei [6] and in the series on Plasmodium berghei [20] were 83%, 99.7% and 99.5%, respectively.
On to `Cc1ccc(-c2cc(-c3ccc(S(C)(=O)=O)cc3)cnc2N)cn1`, for which the microsomal CLint at 1 µM in series [1] is less than 5 µL/min/mg. Moreover, in the series on Plasmodium berghei [21], the outcome was inactive. Besides, the MSD is 3 days in the series with Plasmodium berghei [17], more than 30 days in the series on Plasmodium berghei [3] and 8 days with Plasmodium berghei [4]. Besides, the Activity was less than 40% in the series with Plasmodium berghei [18], 99.2% in the series with Plasmodium berghei [6] and 99.8% with Plasmodium berghei [12]. Further, the result in the series with Plasmodium berghei [22] was Active. In [7], the solubility kinetic at 0.5 h is 50 µg/mL (≈ 147 µM). Moreover, the IC50 (in general, the concentration that gives 50% inhibition) in the series on Plasmodium falciparum [8] was 28 nM; in the series on Plasmodium falciparum [9] it was 29 nM. Also, the half-life at 1 µM in series [10] is more than 350 min. In addition, the chromatographic logD in series [11] worked out at 1.8. For the same compound, the fraction unbound in [13] is 0.256.
Take `CS(=O)(=O)c1ccc(-c2cnc(N)c(-c3ccc(S(C)(=O)=O)cc3)c2)cc1`: the microsomal CLint at 1 µM in [1] is less than 5 µL/min/mg. Further, in the series with Plasmodium berghei [3], the MSD is 15 days. Moreover, in series [7], the solubility kinetic at 0.5 h was 6.3 µg/mL (≈ 15.7 µM). In addition, the IC50 with Plasmodium falciparum [8] and in the series on Plasmodium falciparum [9] was 80 nM throughout. The half-life at 1 µM in series [10] was more than 350 min. The compound also returned a chromatographic logD in [11] of 2. Moreover, the Activity in the series with Plasmodium berghei [12] was 99.6%.
